# Experimental data as given in patent US12559529B2, “NPY2 receptor agonists” (Boehringer Ingelheim International GmbH, priority 2019, dated 2026).
# *1 amine or outer side, *2 acyl side, *3 side chain or, on linkers, in order; H or OH if unused. Where a SMILES comes first, the peptide text is derived from it. Side-chain parts run from the residue outwards. The star is where a group is joined. C18 diacid = O=C(O)CCCCCCCCCCCCCCCCC(=O)*; γGlu = O=C(O)[C@H](CCC(=O)[*:2])N[*:1]; Isovaleryl = CC(C)CC(=O)*; AEEA = NCCOCCOCC(=O)O
# Target: T1, Human Neuropeptide Y2 Receptor (Homo sapiens, UniProt P49146)
# T1 construct: purchased CHEMICON HTS066M
# T1 sequence (P49146 1-381): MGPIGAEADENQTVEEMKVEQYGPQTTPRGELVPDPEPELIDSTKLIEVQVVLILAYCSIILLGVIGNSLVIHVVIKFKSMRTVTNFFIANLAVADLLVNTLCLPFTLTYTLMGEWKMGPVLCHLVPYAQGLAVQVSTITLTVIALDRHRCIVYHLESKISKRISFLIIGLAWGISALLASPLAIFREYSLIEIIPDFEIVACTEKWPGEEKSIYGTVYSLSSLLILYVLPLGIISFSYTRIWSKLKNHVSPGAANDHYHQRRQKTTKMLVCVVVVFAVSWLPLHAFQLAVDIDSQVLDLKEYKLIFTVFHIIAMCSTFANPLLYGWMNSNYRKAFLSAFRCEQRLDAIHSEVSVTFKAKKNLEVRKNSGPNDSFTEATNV
# Test: Radioligand binding competition assay (RLB)
# Settings: Table 3; human 125I-PYY (1-36) 0.02 nM, Y2 receptor membranes; read-out: Ki
# Summary of the method: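 IC50 values come from nonlinear regression of sigmoidal dose-response curves of filter-bound radioactivity. Peptides competed with radioligand at human Y2 receptor membranes (0.5 μg protein/well) for 2 h at room temperature in pH 7.4 HEPES buffer containing Mg2+, Ca2+ and 0.2% ovalbumin.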
row,Structure (SMILES),Ki [nM]
1,"CC(C)CC(=O)N[C@@H](C)C(=O)N1CCC[C@H]1C(=O)N[C@@H](CCC(=O)O)C(=O)N[C@@H](CCCCNC(=O)COCCOCCNC(=O)COCCOCCNC(=O)CC[C@H](NC(=O)CCCCCCCCCCCCCCCCC(=O)O)C(=O)O)C(=O)N1CCC[C@H]1C(=O)N[C@@H](CCC(=O)O)C(=O)N[C@@H](CCC(=O)O)C(=O)N[C@@H](C)C(=O)N[C@@H](C)C(=O)N[C@@H](CO)C(=O)N1CCC[C@H]1C(=O)N[C@@H](CCC(=O)O)C(=O)N[C@@H](CCC(=O)O)C(=O)N[C@@H](CC(C)C)C(=O)N[C@@H](CCC(=O)O)C(=O)N[C@@H](CCC(N)=O)C(=O)N[C@@H](Cc1ccc(O)cc1)C(=O)N[C@@H](Cc1ccc(O)cc1)C(=O)N[C@H](C(=O)N[C@@H](CO)C(=O)N[C@@H](CC(C)C)C(=O)N[C@@H](CCCNC(=N)N)C(=O)N[C@@H](Cc1c[nH]cn1)C(=O)N[C@@H](Cc1ccc(O)cc1)C(=O)N[C@@H](Cc1ccc(O)cc1)C(=O)N[C@@H](CC(N)=O)C(=O)N[C@@H](Cc1c[nH]c2ccccc12)C(=O)N[C@@H](CC(C)C)C(=O)N[C@H](C(=O)N[C@@H](CCCNC(=N)N)C(=O)N[C@@H](CCC(N)=O)C(=O)N[C@@H](CCCNC(=N)N)C(=O)N[C@@H](Cc1ccc(O)cc1)C(N)=O)[C@@H](C)O)C(C)C [Compound 60, N{alpha-4}-(3-methylbutanoyl)-N{epsilon-7}-[2-(2-{2-[2-(2-{2-[(4S)-4-carboxy-4-(17-carboxyheptadecanamido)butanamido]ethoxy}ethoxy)acetamido]ethoxy}ethoxy)acetamido]-[4A,7K,9E,11A,18E,19Q,22V,28Y,30W,31L]hPYY (4-36)] (Isovaleryl-APEK([AEEA-AEEA-γGlu-C18 diacid])PEEAASPEELEQYYVSLRHYYNWLTRQRY-NH2)",5.95
2,"CC[C@H](C)[C@H](NC(=O)[C@H](CCC(=O)O)NC(=O)[C@H](CCC(=O)O)NC(=O)[C@@H]1CCCN1C(=O)[C@H](CO)NC(=O)[C@H](C)NC(=O)[C@H](CC(=O)O)NC(=O)[C@H](CCC(=O)O)NC(=O)[C@@H]1CCCN1C(=O)[C@@H]1CCCN1C(=O)[C@H](CCCCNC(=O)COCCOCCNC(=O)COCCOCCNC(=O)CC[C@H](NC(=O)CCCCCCCCCCCCCCCCC(=O)O)C(=O)O)NC(=O)[C@H](CCC(=O)O)NC(=O)[C@@H]1CCCN1C(=O)[C@H](C)NC(=O)CC(C)C)C(=O)N[C@@H](CCC(N)=O)C(=O)N[C@@H](CCCNC(=N)N)C(=O)N[C@@H](Cc1ccc(O)cc1)C(=O)N[C@@H](Cc1ccc(O)cc1)C(=O)N[C@H](C(=O)N[C@@H](CO)C(=O)N[C@@H](CC(C)C)C(=O)N[C@@H](CCCNC(=N)N)C(=O)N[C@@H](Cc1c[nH]cn1)C(=O)N[C@@H](Cc1ccc(O)cc1)C(=O)N[C@@H](Cc1ccc(O)cc1)C(=O)N[C@@H](CC(N)=O)C(=O)N[C@@H](Cc1c[nH]c2ccccc12)C(=O)N[C@@H](CC(C)C)C(=O)N[C@H](C(=O)N[C@@H](CCCNC(=N)N)C(=O)N[C@@H](CCC(N)=O)C(=O)N[C@@H](CCCNC(=N)N)C(=O)N[C@@H](Cc1ccc(O)cc1)C(N)=O)[C@@H](C)O)C(C)C [Compound 61, N{alpha-4}-(3-methylbutanoyl)-N{epsilon-7}-[2-(2-{2-[2-(2-{2-[(4S)-4-carboxy-4-(17-carboxyheptadecanamido)butanamido]ethoxy}ethoxy)acetamido]ethoxy}ethoxy)acetamido]-[4A,7K,9P,17I,18Q,22V,28Y,30W,31L]hPYY (4-36)]",0.4
3,"CC(C)CC(=O)N[C@@H](C)C(=O)N1CCC[C@H]1C(=O)N[C@@H](CCC(=O)O)C(=O)N[C@@H](CCCCNC(=O)COCCOCCNC(=O)COCCOCCNC(=O)CC[C@H](NC(=O)CCCCCCCCCCCCCCCCC(=O)O)C(=O)O)C(=O)N1CCC[C@H]1C(=O)N[C@@H](CCC(=O)O)C(=O)N[C@@H](CCC(=O)O)C(=O)N[C@@H](CC(=O)O)C(=O)N[C@@H](C)C(=O)N[C@@H](CO)C(=O)N1CCC[C@H]1C(=O)N[C@@H](CCC(=O)O)C(=O)N[C@@H](CCC(=O)O)C(=O)N[C@@H](CC(C)C)C(=O)N[C@@H](CCC(N)=O)C(=O)N[C@@H](CCCNC(=N)N)C(=O)N[C@@H](Cc1ccc(O)cc1)C(=O)N[C@@H](Cc1ccc(O)cc1)C(=O)N[C@H](C(=O)N[C@@H](CO)C(=O)N[C@@H](CC(C)C)C(=O)N[C@@H](CCCNC(=N)N)C(=O)N[C@@H](C)C(=O)N[C@@H](Cc1ccc(O)cc1)C(=O)N[C@@H](Cc1ccc(O)cc1)C(=O)N[C@@H](CC(N)=O)C(=O)N[C@@H](Cc1c[nH]c2ccccc12)C(=O)N[C@@H](CC(C)C)C(=O)N[C@H](C(=O)N[C@@H](CCCNC(=N)N)C(=O)N[C@@H](CCC(N)=O)C(=O)N[C@@H](CCCNC(=N)N)C(=O)N[C@@H](Cc1ccc(O)cc1)C(N)=O)[C@@H](C)O)C(C)C [Compound 63, N{alpha-4}-(3-methylbutanoyl)-N{epsilon-7}-[2-(2-{2-[2-(2-{2-[(4S)-4-carboxy-4-(17-carboxyheptadecanamido)butanamido]ethoxy}ethoxy)acetamido]ethoxy}ethoxy)acetamido]-[4A,7K,9E,18Q,22V,26A,28Y,30W,31L]hPYY (4-36)]",3.13
4,"CC[C@H](C)[C@H](NC(=O)[C@H](CCC(=O)O)NC(=O)[C@@H](NC(=O)[C@H](Cc1ccc(O)cc1)NC(=O)[C@H](Cc1ccc(O)cc1)NC(=O)[C@H](CCCNC(=N)N)NC(=O)[C@H](CCC(N)=O)NC(=O)[C@H](CC(C)C)NC(=O)[C@H](CCC(=O)O)NC(=O)[C@H](CCC(=O)O)NC(=O)[C@@H]1CCCN1C(=O)[C@H](CO)NC(=O)[C@H](C)NC(=O)[C@H](CC(=O)O)NC(=O)[C@H](CCC(=O)O)NC(=O)[C@H](CCC(=O)O)NC(=O)[C@@H]1CCCN1C(=O)[C@H](CCCCNC(=O)COCCOCCNC(=O)COCCOCCNC(=O)CC[C@H](NC(=O)CCCCCCCCCCCCCCCCC(=O)O)C(=O)O)NC(=O)[C@H](CCC(=O)O)NC(=O)[C@@H]1CCCN1C(=O)[C@H](C)NC(=O)CC(C)C)C(C)C)C(=O)N[C@@H](CCCNC(=N)N)C(=O)N[C@@H](Cc1c[nH]cn1)C(=O)N[C@@H](Cc1ccc(O)cc1)C(=O)N[C@@H](Cc1ccc(O)cc1)C(=O)N[C@@H](CC(N)=O)C(=O)N[C@@H](Cc1c[nH]c2ccccc12)C(=O)N[C@@H](CC(C)C)C(=O)N[C@H](C(=O)N[C@@H](CCCNC(=N)N)C(=O)N[C@@H](CCC(N)=O)C(=O)N[C@@H](CCCNC(=N)N)C(=O)N[C@@H](Cc1ccc(O)cc1)C(N)=O)[C@@H](C)O [Compound 65, N{alpha-4}-(3-methylbutanoyl)-N{epsilon-7}-[2-(2-{2-[2-(2-{2-[(4S)-4-carboxy-4-(17-carboxyheptadecanamido)butanamido]ethoxy}ethoxy)acetamido]ethoxy}ethoxy)acetamido]-[4A,7K,9E,18Q,22V,23E,24I,28Y,30W,31L]hPYY (4-36)]",1.02
